{"source": "patent US10034828B2", "about": "“Hair treatment systems and methods using peptides and other compositions” (priority 2013, dated 2018)", "key": {"[1]": {"system": "micro-capillary blood flow to skin", "assay": "Laser Doppler capillary blood flow in humans, 10,000 ppm NO in closed Hilltop chamber (Example 5)", "assay_type": "in vivo, human", "conditions": "applied to the skin at 1/10% in alcohol", "text": "The formulation used in these studies contained nitric oxide dispersed in a lipid matrix. […] Nitric oxide is a very rapid acting molecule, and these studies used a system that employed laser Doppler with a covered chamber. The formulation was placed into the chamber and then attached to the skin by an adhesive layer on the covering. This provided a stable measuring device as determined by multiple normal evaluations of the capillary blood flow without treatment of nitric oxide.\nA known positive control, methyl nicotinate, was applied to the skin at a concentration of 1/10% in alcohol. […] The vascular dynamics are such that when the blood vessels dilate physical parameters follow Bernoulli's law. […] The laser Doppler device accurately measured these parameters.\nIn these studies, the participants were healthy females aged 30 to 55 years. They were in good health as determined by the medical history and were not taking any prescription medications. All study participants read and signed the informed consent statement prior to any study procedures being performed. […]\nA Moor Instruments DRT4 Laser Doppler Blood Flow Monitor (Devon, England) was used in these studies. The laser Doppler technique measured blood flow in the microcapillaries of the skin that are close to the skin surface and the blood flow in underlying arterioles and venules that help to regulate skin temperature. […]"}, "[2]": {"system": "capillary circulation of the skin", "assay": "Laser Doppler circulation study in five human subjects (Example 8)", "assay_type": "in vivo", "conditions": "positive control formulation containing 0.1% methyl nicotinate", "text": "This example illustrates delivery of nitric oxide formulations to five human subjects, using procedures and formulations similar to those discussed in Example 5. Each person served as their own control for the testing. A Moor Instruments Laser Doppler was used to determine circulation. […] The formulations used produce positive, almost immediate results when applied to the skin which, in these studies, was manifested by vasodilatation of the cutaneous vascular system.\nFor each subject, the following creams were applied: a negative control formulation (containing no NO), 0.010 gram of a 10,000 ppm NO formulation, 0.020 gram of a 10,000 ppm NO formulation, and a positive control formulation containing 0.1% methyl nicotinate. The formulations were prepared using procedures similar to those discussed in Example 1."}, "[3]": {"assay": "Nitric oxide absorption by carriers (weight gain on bubbling NO gas)", "assay_type": "physicochemical", "conditions": "NO gas bubbled 40 hr, 25 ° C.", "experimental": "This example illustrates one technique for preparing a composition in accordance with one embodiment of the invention. An accurate amount of a carrier (HNC 167-62) (see below) was introduced into a system. The carrier weight used in these experiments was approximately 250 g and the vessel size was 500 ml. The vessel was equipped with a mechanical stirrer, gas inlet, and gas outlet and was previously purged with argon for about an hour. The temperature of the carrier was kept at about 25-30° C. NO gas regulated at 5 psi (1 psi is about 6,900 Pa) and was then introduced at a controlled rate of about 1 bubble/s with continuous stirring. […] After 6 hours, the weight of the carrier had increased by 0.15%, by 12 hours by 0.25%, and by 24 hours by 0.56%. These increases in weight were believed to be significant considering the relative small molecular weight of NO versus the carrier. […] The carrier also can solidify upon cooling if the carrier is initially a solid at lower temperature.\nEach carrier was taken in a 500 mL three necked flask equipped with a mechanical stirrer, gas inlet and a gas outlet. The system was purged with argon for one hour at room temperature (25° C.). Then nitric oxide gas was bubbled into the system. Then, nitric oxide gas was bubbled through carrier for stipulated amount of time. The changes in weight and color were noted. […]"}, "[4]": {"assay": "Carrying of TRH peptide by carrier formulations", "assay_type": "physicochemical", "conditions": "TRH concentration of 5.0 mg/cc", "text": "Any of the above compositions are effective as carriers for peptides and nitric oxide."}}}
{"smiles": "COC(=O)c1cccnc1", "note": "[methyl nicotinate]", "values": [{"measurement": "laser Doppler response to positive control", "setting": "[1]", "result": "rapid response typical of the vasodilator"}, {"measurement": "vasodilatation", "setting": "[2]", "result": "vasodilatation was observed"}]}
{"smiles": "OCCCO", "note": "[1,3-Propanediol, 1,3-propanediol]", "values": [{"measurement": "% Wt. gain", "setting": "[3]", "result": 0.09, "unit": "%"}, {"measurement": "Wt. Gain g", "setting": "[3]", "result": 0.16, "unit": "g"}]}
{"smiles": "NC(=O)[C@@H]1CCCN1C(=O)[C@H](Cc1cnc[nH]1)NC(=O)[C@@H]1CCC(=O)N1", "note": "[TRH, thyrotropin-releasing hormone]", "values": [{"measurement": "carrying of the peptide by formulations HNC 156-43, HNC 156-50, HNC 156-47, HNC 159-136", "setting": "[4]", "result": "effectively carried"}]}
